According to patent US20090215708A1, “Treatment of Sexual Dysfunction with Proton Pump Agonists” (priority 2008, published 2009):

How the values were obtained:
[1] = tested on: subject with sexual dysfunction related to penis size below the 10th percentile; experiment: Daily oral cinchomeronic acid in a subject with penis size below the 10th percentile; format: in vivo, human
From the text: A subject who has reported long-term sexual dysfunction related to a penis size below the 10th percentile is given an oral formulation of cinchomeronic acid, at a daily dose sufficient to maintain therapeutic blood levels of the agent.

[2] = tested on: proton pump (plasma membrane H+ ATPases); details: plants; cited from earlier work
[3] = tested on: subject diagnosed with Female Sexual Arousal Disorder (FSAD); experiment: Daily oral fusicoccin in a subject with Female Sexual Arousal Disorder; format: in vivo, human; details: daily oral formulation
From the text: A subject who has been diagnosed with Female Sexual Arousal Disorder (FSAD) for over 6 months is given a daily oral formulation of fusicoccin, at a dose sufficient to maintain therapeutic blood levels of the agent. […] The use of this preparation is well accepted by both the subject and partner.

| Compound | adverse side effects [1] | penile circumference and length compared to before treatment ([1]; two months after beginning treatment) | proton pumping across the plasma membrane [2] | adverse side effects [3] | symptoms, including lubrication-swelling response during sexual activity ([3]; one week after beginning treatment) |
| --- | --- | --- | --- | --- | --- |
| O=C(O)c1ccncc1C(=O)O [cinchomeronic acid, 3,4-dicarboxypyridine] | no adverse side effects | measurable increase |  |  |  |
| C=CC(C)(C)OC[C@H]1O[C@H](O[C@@H]2C3=C([C@H](C)COC(C)=O)C[C@H](O)[C@]3(C)/C=C3/[C@@H](COC)CC[C@H]3[C@@H](C)[C@H]2O)[C@H](O)[C@@H](OC(C)=O)[C@@H]1O [fusicoccin] |  |  | activate | without adverse side effects | significant improvement in symptoms |
